Measurements taken from publication PMC8342319, “Predicting blood-to-plasma concentration ratios of drugs from chemical structures and volumes of distribution in humans” (Molecular Diversity, 2021).
Where two headings read alike, the source gives them in different places.

Tests used:
plasma protein = conditions: cited from earlier work; for fp_Human (free fraction in plasma): human
[1] = human, cited from earlier work
[2] = human
[3] = human, cited from earlier work; for Rb_Human: blood-to-plasma concentration ratio, median if multiple values reported, Reference of Table S1
[4] = cited from earlier work
[5] = collected value, median if multiple values were reported, ref: Table S1
[6] = intravenous, median if multiple values were reported, ref numbers in Table S1
[7] = median if multiple values were reported, ref numbers in Table S1
[8] = human, intravenous, median if multiple values were reported, ref numbers in Table S1
[9] = free fraction in human plasma, median if multiple values reported, Reference of Table S1
[10] = intravenous, median if multiple values reported, Reference of Table S1
[11] = human, intravenous, median if multiple values reported, Reference of Table S1

Molecule | fp_Human (free fraction in plasma) (plasma protein; [5]) | in vivo Vd_(L/kg)_Human [1, 6] | in vivo MRT_(hr)_Human [2] | Rb_Human (blood-to-plasma concentration ratio) [3, 7] | in vivo CL_(L/hr/kg)_Human [4, 8] | fp_Human (plasma protein; [9]) | in vivo Vd_(L/kg)_Human [1, 10] | Rb_Human [3] | in vivo CL_(L/hr/kg)_Human [4, 11] | further results
CC(C)NCC(O)COc1ccc(CCOCC2CC2)cc1 (stereo not drawn) [Betaxolol] | 0.495 | 4.800 L/kg | 23.529 h | 0.79 | 0.204 L/h/kg |  |  |  |  | 
CC[C@H](C)C[C@H](C)CCCCCCCCC(=O)N[C@H]1C[C@@H](O)[C@@H](NCCN)NC(=O)[C@@H]2[C@@H](O)CCN2C(=O)[C@H]([C@H](O)CCN)NC(=O)[C@H]([C@H](O)[C@@H](O)c2ccc(O)cc2)NC(=O)[C@@H]2C[C@@H](O)CN2C(=O)[C@H]([C@@H](C)O)NC1=O [Caspofungin] |  |  | 15.476 h |  |  |  |  |  |  | fp_Human (free fraction in plasma) (plasma protein; plasma): 0.035; in vivo Vd_(L/kg)_Human ([1]; in vivo, iv): 0.130 L/kg; Rb_Human (blood-to-plasma concentration ratio) ([3]; plasma): 0.74; in vivo CL_(L/hr/kg)_Human ([4]; in vivo, iv): 0.008 L/h/kg
CO[C@@]1(NC(=O)C2SC(=C(C(N)=O)C(=O)O)S2)C(=O)N2C(C(=O)O)=C(CSc3nnnn3C)CS[C@@H]21 (stereo partly drawn) [Cefotetan] | 0.150 | 0.130 L/kg | 5.159 h | 0.65 | 0.025 L/h/kg |  |  |  |  | 
CC(C)(O/N=C(\C(=O)N[C@@H]1C(=O)N2C(C(=O)[O-])=C(C[n+]3ccccc3)CS[C@H]12)c1csc(N)n1)C(=O)O [Ceftazidime] | 0.790 | 0.310 L/kg | 2.153 h | 0.72 | 0.144 L/h/kg |  |  |  |  | 
CN(C)CCC(c1ccc(Cl)cc1)c1ccccn1 (stereo not drawn) [Chlorpheniramine] | 0.280 | 3.300 L/kg | 22.000 h | 1.34 | 0.150 L/h/kg |  |  |  |  | 
Clc1cccc(Cl)c1N=C1NCCN1 [Clonidine] | 0.560 | 3.300 L/kg | 13.750 h | 1.04 | 0.213 L/h/kg |  |  |  |  | 
OCCN1CCN(CCCN2c3ccccc3Sc3ccc(C(F)(F)F)cc32)CC1 [Fluphenazine] | 0.040 | 2.900 L/kg | 4.983 h | 0.69 | 0.591 L/h/kg |  |  |  |  | 
C[C@@H]1C[C@H]2[C@@H]3C[C@H](F)C4=CC(=O)C=C[C@]4(C)[C@@]3(F)[C@@H](O)C[C@]2(C)[C@@]1(O)C(=O)SCF [Fluticasone] | 0.100 | 3.600 L/kg | 3.529 h | 0.60 | 1.020 L/h/kg |  |  |  |  | 
CCCCC1=NC2(CCCC2)C(=O)N1Cc1ccc(-c2ccccc2-c2nnn[nH]2)cc1 [Irbesartan] | 0.100 | 0.940 L/kg | 6.812 h | 0.60 | 0.133 L/h/kg |  |  |  |  | 
CNCCCC12CCC(c3ccccc31)c1ccccc12 [Maprotiline] | 0.115 | 45.000 L/kg | 53.571 h | 1.70 | 0.840 L/h/kg |  |  |  |  | 
N[C@@H](Cc1ccc(N(CCCl)CCCl)cc1)C(=O)O [Melphalan] | 0.120 |  | 1.143 h |  | 0.366 L/h/kg |  |  |  |  | in vivo Vd_(L/kg)_Human ([1]; in vivo, iv): 0.480 L/kg; Rb_Human (blood-to-plasma concentration ratio) ([3]; plasma): 0.96
CCOC(=O)C1(c2ccccc2)CCN(C)CC1 [Meperidine] | 0.380 | 3.350 L/kg | 11.395 h | 1.01 | 1.020 L/h/kg |  |  |  |  | 
Cc1cccc(C)c1OCC(C)N (stereo not drawn) [Mexiletine] | 0.350 | 5.900 L/kg | 11.847 h | 1.12 | 0.498 L/h/kg |  |  |  |  | 
Cc1ncc2n1-c1ccc(Cl)cc1C(c1ccccc1F)=NC2 [Midazolam] | 0.030 |  | 3.459 h | 0.68 | 0.318 L/h/kg |  |  |  |  | fp_Human (plasma protein): 0.030; in vivo Vd_(L/kg)_Human ([1]; in vivo, iv): 1.100 L/kg
CC(C)=CCN1CCC2(C)c3cc(O)ccc3CC1C2C (stereo not drawn) [Pentazocine] | 0.380 |  | 2.464 h | 1.07 | 1.380 L/h/kg |  |  |  |  | in vivo Vd_(L/kg)_Human ([1]; in vivo, iv): 3.400 L/kg
CCOc1ccc(NC(C)=O)cc1 [Phenacetin] |  |  | 1.111 h |  |  | 0.470 | 1.400 L/kg | 1.01 |  | 
CC(C)NCC(O)COc1cccc2[nH]ccc12 (stereo not drawn) [Pindolol] |  |  | 2.597 h |  |  | 0.580 | 1.200 L/kg | 0.69 |  | 

Molecule | fp_Human (free fraction in plasma) (plasma protein; [5]) | in vivo Vd_(L/kg)_Human [1, 6] | in vivo MRT_(hr)_Human [2] | Rb_Human (blood-to-plasma concentration ratio) [3, 7] | in vivo CL_(L/hr/kg)_Human [4, 8] | fp_Human (plasma protein; [9]) | in vivo Vd_(L/kg)_Human [1, 10] | Rb_Human [3] | in vivo CL_(L/hr/kg)_Human [4, 11] | further results
CCCNC(C)C(=O)Nc1ccccc1C (stereo not drawn) [Prilocaine] |  |  | 2.126 h |  |  | 0.665 | 3.700 L/kg | 1.25 | 1.740 L/h/kg | 
CNC(=C[N+](=O)[O-])NCCSCc1ccc(CN(C)C)o1 [Ranitidine] |  |  | 2.083 h |  |  | 0.900 | 1.200 L/kg | 1.00 |  | 
CO[C@H]1/C=C/O[C@@]2(C)Oc3c(C)c(O)c4c(c3C2=O)C2=NC3(CCN(CC(C)C)CC3)NC2=C(NC(=O)/C(C)=C\C=C\[C@H](C)[C@H](O)[C@@H](C)[C@@H](O)[C@@H](C)[C@H](OC(C)=O)[C@@H]1C)C4=O [Rifabutin] |  |  | 64.583 h |  |  | 0.290 | 9.300 L/kg | 0.59 | 0.144 L/h/kg | 
CN(C)CCc1c[nH]c2ccc(Cn3cncn3)cc12 [Rizatriptan] |  |  | 1.979 h |  |  | 0.860 | 1.900 L/kg | 1.04 | 0.960 L/h/kg | 
C=CC[N+]1([C@H]2C[C@H]3[C@@H]4CC[C@H]5C[C@H](O)[C@@H](N6CCOCC6)C[C@]5(C)[C@H]4CC[C@]3(C)[C@H]2OC(C)=O)CCCC1 [Rocuronium] |  |  | 0.946 h |  |  | 0.540 | 0.210 L/kg | 1.00 | 0.239 L/h/kg | 
CN(c1nc2ccccc2s1)C1CCN(CC(O)COc2ccc(F)cc2)CC1 (stereo not drawn) [Sabeluzole] |  |  | 22.634 h |  |  | 0.012 | 5.500 L/kg | 0.82 | 0.243 L/h/kg | 
CC(C)NCC(O)c1ccc(NS(C)(=O)=O)cc1 (stereo not drawn) [Sotalol] |  |  | 10.833 h |  |  | 0.810 | 1.300 L/kg | 1.07 |  | 
Cc1ccsc1C(=CCCN1CCC[C@@H](C(=O)O)C1)c1sccc1C [Tiagabine] |  |  | 11.458 h |  |  | 0.040 | 1.100 L/kg | 0.65 | 0.096 L/h/kg | 
CC(C)(C)NC[C@H](O)COc1nsnc1N1CCOCC1 [Timolol] |  |  |  |  |  | 0.491 | 1.500 L/kg | 0.84 | 0.462 L/h/kg | 
Nc1nc(N)c2nc(-c3ccccc3)c(N)nc2n1 [Triamterene] |  |  |  |  |  | 0.420 | 13.000 L/kg | 1.03 | 3.780 L/h/kg | 
COc1cc(Cc2cnc(N)nc2N)cc(OC)c1OC [Trimethoprim] |  |  | 11.905 h |  |  | 0.500 | 1.500 L/kg | 1.03 |  | 
Cc1c(C)c2c(c(C)c1O)CCC(C)(COc1ccc(CC3SC(=O)NC3=O)cc1)O2 (stereo not drawn) [Troglitazone] |  |  |  |  |  | 0.00347 | 0.710 L/kg | 0.55 | 0.210 L/h/kg | 
CCCC(CCC)C(=O)O [Valproic Acid] |  |  |  |  |  | 0.091 | 0.145 L/kg | 0.64 | 0.008 L/h/kg | 
O=C1Cc2cc(CCN3CCN(c4nsc5ccccc45)CC3)c(Cl)cc2N1 [Ziprasidone] |  |  |  |  |  | 0.0012 | 1.000 L/kg | 0.81 | 0.504 L/h/kg | 
O=P(O)(O)C(O)(Cn1ccnc1)P(=O)(O)O [Zoledronic Acid] |  |  |  |  |  | 0.780 | 0.600 L/kg | 0.59 | 0.132 L/h/kg | 
Oc1ccc2c(c1)[C@@]13CCCC[C@@]1(O)[C@@H](C2)N(CC1CCC1)CC3 [butorphanol, reference compound] | 0.170 |  |  |  | 2.460 L/h/kg |  |  |  |  | in vivo Vd_(L/kg)_Human ([1]; in vivo, iv): 12.000 L/kg; Rb_Human (blood-to-plasma concentration ratio) ([3]; plasma): 1.90
Isosorbide mononitrate | 0.850 |  |  |  | 0.102 L/h/kg |  |  |  |  | fp_Human (plasma protein; human plasma free fraction, median if multiple values were reported, ref numbers in Table S1): 0.850; in vivo Vd_(L/kg)_Human ([1]; in vivo, iv): 0.600 L/kg; Rb_Human (blood-to-plasma concentration ratio) ([3]; plasma): 1.00
